“Also recorded” adds a separate entry of the source.
How the values were obtained:
Assay type in all cases: biochemical
[1] = molecular target: T1, Streptococcus pneumoniae aspartate semialdehyde dehydrogenase (spASADH) (Streptococcus pneumoniae, UniProt Q8DQ00); assay: spASADH kinetic assay: reverse direction, NADPH absorbance at 340 nm; Ki from Dixon plot assuming competitive inhibition against ASA; settings: pH 8.6, r.t., 0.15 mM ASA, 1.5 mM NADP, 20 mM phosphate
T1 construct: homodimer from general knowledge
T1 sequence (Q8DQ00 1-358): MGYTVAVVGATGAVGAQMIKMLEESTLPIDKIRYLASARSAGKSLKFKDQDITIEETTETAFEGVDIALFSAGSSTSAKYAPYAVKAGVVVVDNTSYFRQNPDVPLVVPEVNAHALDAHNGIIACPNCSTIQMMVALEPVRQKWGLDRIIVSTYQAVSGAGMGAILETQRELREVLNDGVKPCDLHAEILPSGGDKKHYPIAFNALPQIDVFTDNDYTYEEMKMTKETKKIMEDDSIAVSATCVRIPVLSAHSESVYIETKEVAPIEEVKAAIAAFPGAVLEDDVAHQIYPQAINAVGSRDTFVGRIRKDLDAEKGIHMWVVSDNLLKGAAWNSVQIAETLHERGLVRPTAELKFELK

[2] = molecular target: Vibrio cholerae aspartate semialdehyde dehydrogenase (vcASADH); assay: vcASADH kinetic assay: reverse direction, NADPH absorbance at 340 nm; Ki from Dixon plot assuming competitive inhibition against ASA; settings: pH 8.6, r.t., 0.3 mM ASA, 1.5 mM NADP, 20 mM phosphate
[3] = molecular target: Streptococcus pneumoniae aspartate semialdehyde dehydrogenase (spASADH) (Streptococcus pneumoniae, UniProt Q8DQ00); assay: biochemical; settings: for inhibition / binding affinity for spASADH (in words): relative to parent or neighbouring derivative
[4] = molecular target: T2, Vibrio cholerae aspartate semialdehyde dehydrogenase (vcASADH) (Vibrio cholerae serotype O1, UniProt P23247); assay: biochemical; settings: for inhibition / binding affinity for vcASADH (in words): relative to parent or neighbouring derivative
T2 construct: made in house

[5] = competitive vs ASA, 0.15 mM ASA, pH 8.6, read-out: Ki for spASADH

T2 sequence (P23247 whole entry): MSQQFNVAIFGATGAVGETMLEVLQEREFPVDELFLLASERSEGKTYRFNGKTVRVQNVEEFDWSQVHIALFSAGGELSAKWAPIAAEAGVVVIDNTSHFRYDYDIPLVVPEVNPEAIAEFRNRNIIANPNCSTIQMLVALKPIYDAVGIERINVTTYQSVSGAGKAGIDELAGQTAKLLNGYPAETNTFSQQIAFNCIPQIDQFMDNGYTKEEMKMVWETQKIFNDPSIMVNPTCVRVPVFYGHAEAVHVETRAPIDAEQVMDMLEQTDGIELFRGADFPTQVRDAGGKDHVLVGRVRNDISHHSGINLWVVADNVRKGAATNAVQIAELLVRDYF

## O=C(O)CN(Cc1ccc(C(=O)O)c(C(=O)O)c1)Cc1ccccc1Br [Compound 18, N-(2-bromobenzyl)-N-carboxymethyl-3,4-dicarboxybenzylamine]
[1]; FIG. 5, Table 2
  Ki: 529 ± 38 µM
[2]; FIG. 5, Table 2
  Ki: 737 ± 49 µM
[3]
  inhibition / binding affinity for spASADH (in words): did not yield any improvement in affinity

## N-acetonitrile, N-carboxymethyl-3,4-dicarboxybenzylamine [Compound 12]
[1]; FIG. 4, Table 1
  Ki: 220 ± 14 µM
[2]; FIG. 4, Table 1
  Ki: 498 ± 27 µM

## O=C(O)CCNCc1ccc(C(=O)O)c(C(=O)O)c1 [Compound 4, N-carboxyethyl-3,4-dicarboxybenzylamine]
[4]
  inhibition / binding affinity for vcASADH (in words): did not show appreciable inhibition
[3]; [5]
  Ki: 2400 µM
[3]
  inhibition / binding affinity for spASADH (in words): substantial affinity loss

## O=C(O)CN(Cc1cccc(C(F)(F)F)c1)Cc1ccc(C(=O)O)c(C(=O)O)c1 [Compound 25, N-(3-trifluoromethylbenzyl)-N-carboxymethyl-3,4-dicarboxybenzylamine]
[4]
  inhibition / binding affinity for vcASADH (in words): did not alter the affinity
[1]; FIG. 5, Table 2
  Ki: 441 ± 27 µM
[2]; FIG. 5, Table 2
  Ki: 678 ± 36 µM
[3]
  inhibition / binding affinity for spASADH (in words): did not alter the affinity

## O=C(O)CN(Cc1ccc(C(=O)O)c(C(=O)O)c1)Cc1ccccc1C(F)(F)F [Compound 24, N-(2-trifluoromethylbenzyl)-N-carboxymethyl-3,4-dicarboxybenzylamine]
[4]
  inhibition / binding affinity for vcASADH (in words): did not alter the affinity
[1]; FIG. 5, Table 2
  Ki: 509 ± 29 µM
[2]; FIG. 5, Table 2
  Ki: 727 ± 60 µM
[3]
  inhibition / binding affinity for spASADH (in words): did not alter the affinity

## O=C(O)CN(Cc1ccc(C(F)(C(F)(F)F)C(F)(F)F)cc1)Cc1ccc(C(=O)O)c(C(=O)O)c1 [Compound 34, N-(4-(2-perfluoropropyl))-N-carboxymethyl-3,4-dicarboxybenzylamine]
[2]; FIG. 5, Table 2
  Ki: 639 ± 37 µM
[3]
  Ki: 9 µM
  inhibition / binding affinity for spASADH (in words): low micromolar K value

## CC(C)(C)c1ccc(CN(CC(=O)O)Cc2ccc(C(=O)O)c(C(=O)O)c2)cc1 [Compound 33, N-(4-t-butylbenzyl)-N-carboxymethyl-3,4-dicarboxybenzylamine]
[2]; FIG. 5, Table 2
  Ki: 648 ± 32 µM
[3]; Gram-positive spASADH over Gram-negative vcASADH
  selectivity for spASADH relative to vcASADH: over 40 fold
[3]; [5]
  Ki: 16 µM
[3]
  inhibition / binding affinity for spASADH (in words): additional two-fold improvement

## C=CCN(CC(=O)O)Cc1ccc(C(=O)O)c(C(=O)O)c1 [Compound 11, N-allyl, N-carboxymethyl-3,4-dicarboxybenzylamine]
[1]; FIG. 4, Table 1
  Ki: 303 ± 22 µM
[2]; FIG. 4, Table 1
  Ki: 663 ± 36 µM

## CN(CC(=O)O)Cc1cccc(C(=O)O)c1C(=O)O [Compound 9, N-methyl, N-carboxymethyl-2,3-dicarboxybenzylamine]
[4]
  inhibition / binding affinity for vcASADH (in words): no inhibition
[3]; [5]
  Ki: 1800 µM

## O=C(O)CN(Cc1ccccc1)Cc1ccc(C(=O)O)c(C(=O)O)c1 [Compound 13, N-benzyl, N-carboxymethyl-3,4-dicarboxybenzylamine]
[1]; FIG. 4, Table 1
  Ki: 297 ± 14 µM
[2]; FIG. 4, Table 1
  Ki: 696 ± 33 µM

## O=C(O)CN(Cc1ccc(C(=O)O)c(C(=O)O)c1)c1ccc2ccccc2c1 [Compound 15, N-(2-naphthyl)-N-carboxymethyl-3,4-dicarboxybenzylamine]
[1]; FIG. 4, Table 1
  Ki: 329 ± 22 µM
[2]; FIG. 4, Table 1
  Ki: 724 ± 47 µM
[3]
  inhibition / binding affinity for spASADH (in words): slightly worse inhibition

## O=C(O)CN(Cc1cccc(Br)c1)Cc1ccc(C(=O)O)c(C(=O)O)c1 [Compound 19, N-(3-bromobenzyl)-N-carboxymethyl-3,4-dicarboxybenzylamine]
[1]; FIG. 5, Table 2
  Ki: 442 ± 29 µM
[2]; FIG. 5, Table 2
  Ki: 665 ± 37 µM
[3]
  inhibition / binding affinity for spASADH (in words): did not yield any improvement in affinity

## NC(=O)c1ccc(CN(CC(=O)O)Cc2ccc(C(=O)O)c(C(=O)O)c2)cc1 [Compound 32, N-(4-carboxamidebenzyl)-N-carboxymethyl-3,4-dicarboxybenzylamine]
[1]; FIG. 5, Table 2
  Ki: 229 ± 32 µM
[2]; FIG. 5, Table 2
  Ki: 649 ± 25 µM
[3]; carboxamide vs p-carboxyl derivative (31)
  loss of affinity: 3 fold

## O=C(O)CN(Cc1ccc(C(=O)O)c(C(=O)O)c1)Cc1cccc2ccccc12 [Compound 14]
[3]
  inhibition / binding affinity for spASADH (in words): slightly worse inhibition

## O=C(O)CN(Cc1ccc(C(=O)O)cc1)Cc1ccc(C(=O)O)c(C(=O)O)c1 [Compound 31, N-(4-carboxybenzyl)-N-carboxymethyl-3,4-dicarboxybenzylamine]
[1]; FIG. 5, Table 2
  Ki: 72 ± 7 µM
[2]; FIG. 5, Table 2
  Ki: 635 ± 55 µM
[3]
  inhibition / binding affinity for spASADH (in words): comparable affinity to that observed for the p-methylbenzyl derivative (23)

## CC(=O)N(CC(=O)O)Cc1ccc(C(=O)O)c(C(=O)O)c1 [Compound 37, N-acetal-N-carboxymethyl-3,4-dicarboxybenzylamine]
[1]; FIG. 4, Table 1
  Ki: 276 ± 16 µM
[2]; FIG. 4, Table 1
  Ki: 655 ± 51 µM

## CN(CC(=O)O)Cc1ccc(C(=O)O)c(C(=O)O)c1 [Compound 10, N-methyl, N-carboxymethyl-3,4-dicarboxybenzylamine]
[1]; FIG. 4, Table 1
  Ki: 296 ± 36 µM
[2]; FIG. 4, Table 1
  Ki: 675 ± 54 µM

## O=C(O)CN(CCN1CCOCC1)Cc1ccc(C(=O)O)c(C(=O)O)c1 [Compound 16, N-(ethylmorpholino)-N-carboxymethyl-3,4-dicarboxybenzylamine]
[3]
  inhibition / binding affinity for spASADH (in words): only a slight improvement

## O=C(O)CN(Cc1ccc(C(=O)O)c(C(=O)O)c1)c1ccc(-c2ccccc2)cc1 [Compound 17, N-(4-biphenyl)-N-carboxymethyl-3,4-dicarboxybenzylamine]
[2]; FIG. 4, Table 1
  Ki: 634 ± 29 µM
[3]; relative to parent benzyl derivative
  improved inhibition of spASADH relative to the parent benzyl derivative: 25 fold
[3]
  inhibition / binding affinity for spASADH (in words): improved binding affinity

## O=C(O)CN(Cc1ccc(OC(F)(F)F)cc1)Cc1ccc(C(=O)O)c(C(=O)O)c1 [Compound 29, N-(4-trifluoromethoxybenzyl)-N-carboxymethyl-3,4-dicarboxybenzylamine]
[1]; FIG. 5, Table 2
  Ki: 36 ± 6 µM
[2]; FIG. 5, Table 2
  Ki: 663 ± 39 µM
[3]
  inhibition / binding affinity for spASADH (in words): two-fold additional improvement in binding affinity

## O=C(O)CN(Cc1ccc(C(F)(F)F)cc1)Cc1ccc(C(=O)O)c(C(=O)O)c1 [Compound 36, N-(4-trifluoromethylbenzyl)-N-carboxymethyl-3,4-dicarboxybenzylamine]
[1]; FIG. 5, Table 2
  Ki: 3800 ± 220 µM
[3]
  inhibition / binding affinity for spASADH (in words): substantial affinity loss

## O=C(O)CNCc1ccc(C(=O)O)c(C(=O)O)c1 [Compound 3, N-carboxymethyl-3,4-dicarboxybenzylamine]
[4]
  Ki: 500 µM
  inhibition / binding affinity for vcASADH (in words): high millimolar inhibitor
[1]; FIG. 4, Table 1
  Ki: 246 ± 20 µM
[3]
  inhibition / binding affinity for spASADH (in words): two-fold stronger inhibitor; also recorded: high millimolar inhibitor

## Cc1cccc(CN(CC(=O)O)Cc2ccc(C(=O)O)c(C(=O)O)c2)c1 [Compound 22, N-(3-methylbenzyl)-N-carboxymethyl-3,4-dicarboxybenzylamine]
[1]; FIG. 5, Table 2
  Ki: 430 ± 22 µM
[2]; FIG. 5, Table 2
  Ki: 690 ± 41 µM
[3]
  inhibition / binding affinity for spASADH (in words): did not yield any improvement in affinity

## O=C(O)CN(Cc1ccc(C(F)(F)F)cc1)Cc1ccc(C(=O)O)c(C(=O)O)c1 [Compound 26, N-(4-trifluoromethylbenzyl)-N-carboxymethyl-3,4-dicarboxybenzylamine]
[2]; FIG. 5, Table 2
  Ki: 628 ± 48 µM
[3]
  inhibition / binding affinity for spASADH (in words): two-fold additional improvement in binding affinity

## O=C(O)CN(Cc1ccc(C=Cc2ccccc2)cc1)Cc1ccc(C(=O)O)c(C(=O)O)c1 [Compound 38, N-((4-(2-benzyl)vinyl)benzyl)-N-carboxymethyl-3,4-dicarboxybenzylamine]
[2]; FIG. 5, Table 2
  Ki: 1100 ± 200 µM

## O=C(O)CN(Cc1ccc(OC(F)F)cc1)Cc1ccc(C(=O)O)c(C(=O)O)c1 [Compound 30, N-(4-difluoromethoxybenzyl)-N-carboxymethyl-3,4-dicarboxybenzylamine]
[1]; FIG. 5, Table 2
  Ki: 54 ± 5 µM
[2]; FIG. 5, Table 2
  Ki: 698 ± 44 µM
[3]
  inhibition / binding affinity for spASADH (in words): reversed this improvement

## N-(1-naphthyl)-N-carboxymethyl-3,4-dicarboxybenzylamine [Compound 14]
[1]; FIG. 4, Table 1
  Ki: 396 ± 42 µM
[2]; FIG. 4, Table 1
  Ki: 749 ± 54 µM

## Cc1ccc(CN(CC(=O)O)Cc2ccc(C(=O)O)c(C(=O)O)c2)cc1 [Compound 23, N-(4-methylbenzyl)-N-carboxymethyl-3,4-dicarboxybenzylamine]
[4]
  inhibition / binding affinity for vcASADH (in words): did not show any improved affinity
[1]; FIG. 5, Table 2
  Ki: 63 ± 7 µM
[2]; FIG. 5, Table 2
  Ki: 608 ± 42 µM

## O=C(O)CCN(Cc1ccc(Br)cc1)Cc1ccc(C(=O)O)c(C(=O)O)c1 [Compound 35, N-(4-bromobenzyl)-N-carboxyethyl-3,4-dicarboxybenzylamine]
[1]; FIG. 5, Table 2
  Ki: 3600 ± 230 µM
[3]
  inhibition / binding affinity for spASADH (in words): substantial affinity loss

## Cc1ccccc1CN(CC(=O)O)Cc1ccc(C(=O)O)c(C(=O)O)c1 [Compound 21, N-(2-methylbenzyl)-N-carboxymethyl-3,4-dicarboxybenzylamine]
[1]; FIG. 5, Table 2
  Ki: 524 ± 27 µM
[2]; FIG. 5, Table 2
  Ki: 721 ± 46 µM
[3]
  inhibition / binding affinity for spASADH (in words): did not yield any improvement in affinity
